According to US7364900B2, “Multi-lineage directed induction of bone marrow stromal cell differentiation” (University of Medicine and Dentistry of New Jersey, priority 2001, dated 2008):

Tested on: rMSCs
Test: Induction of nestin-positive endodermal/neuronal precursor cells from marrow stromal cells
Format: cell-based, rat
Details: sub-confluent rMSCs, pre-induction media supplemented with 1 mM BME, 24 hours
Protocol: Rat MSCs are originally cultured in alpha-Modified Eagle's Medium (alpha-MEM) supplemented with 20% FBS, 2 mM L-glutamine, 100 units per milliliter penicillin, 100 […] streptomycin and 25 nanograms per milliliter amphotericin B. For each passage the cells are plated at about 8,000 cells per square centimeter and grown to confluency. At passage 6 the cells are transferred to DMEM (pH 8.0)/20% FBS without additional supplementation, and maintained beyond passage 14. Subconfluent cultures of rat and human MSCs are maintained in DMEM/20% FBS.
Twenty-four hours before induction of partial differentiation to nestin-positive precursor cells, medium is replaced with a pre-induction medium consisting of DMEM, 20% FBS and 1 millimolar β-mercaptoethanol. The cells are then transferred to a serum free endodermal/neuronal precursor induction medium composed of DMEM and 1-10 millimolar β-mercaptoethanol. […] To effect further differentiation to pancreatic islet cell phenotype, the partially differentiated nestin-positive endodermal/neuronal precursor cells are transferred to serum-free DMEM containing 1-10 mM β-mercaptoethanol with and without 10 nanograms/ml basic fibroblast growth factor (bFGF).
rMSCs are initially maintained in sub-confluent cultures in pre-induction media supplemented with 1 mM beta-mercaptoethanol (BME) for 24 hours. […]

Question: How did the changes in morphology turn out when OCCS [BME, beta-mercaptoethanol] was run?
Answer: no changes in morphology are evident
